Legend:
Assay in all cases: relative viability (nuclei count vs DMSO), 5 days (fraction); higher = more cells survive
Bosutinib + Pictilisib = compound: COc1cc(Nc2c(C#N)cnc3cc(OCCCN4CCN(C)CC4)c(OC)cc23)c(Cl)cc1Cl [Bosutinib] + CS(=O)(=O)N1CCN(Cc2cc3nc(-c4cccc5[nH]ncc45)nc(N4CCOCC4)c3s2)CC1 [Pictilisib] (partner 1 µM)
In short: (§1)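 Relative viability is defined as nuclei in treated wells over nuclei in vehicle wells. Duplicate plates were run and medians reported. Lung cancer cell lines in 1536-well plates were dosed by pin tool one day after seeding, with one drug or with a fixed anchor-drug dose plus five library-drug doses (not always all listed) in √10 steps, and nuclei were counted after 5 days.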

Bosutinib + Lapatinib = compound: COc1cc(Nc2c(C#N)cnc3cc(OCCCN4CCN(C)CC4)c(OC)cc23)c(Cl)cc1Cl [Bosutinib] + CS(=O)(=O)CCNCc1ccc(-c2ccc3ncnc(Nc4ccc(OCc5cccc(F)c5)c(Cl)c4)c3c2)o1 [Lapatinib] (partner 2 µM)
In short: as §1

Bosutinib + Foretinib = compound: COc1cc(Nc2c(C#N)cnc3cc(OCCCN4CCN(C)CC4)c(OC)cc23)c(Cl)cc1Cl [Bosutinib] + COc1cc2c(Oc3ccc(NC(=O)C4(C(=O)Nc5ccc(F)cc5)CC4)cc3F)ccnc2cc1OCCCN1CCOCC1 [Foretinib] (partner 0.25 µM)
In short: as §1

Bosutinib + Linsitinib = compound: COc1cc(Nc2c(C#N)cnc3cc(OCCCN4CCN(C)CC4)c(OC)cc23)c(Cl)cc1Cl [Bosutinib] + C[C@]1(O)C[C@@H](c2nc(-c3ccc4ccc(-c5ccccc5)nc4c3)c3c(N)nccn32)C1 [Linsitinib] (partner 1 µM)
In short: as §1

Bosutinib + Phenformin = compound: COc1cc(Nc2c(C#N)cnc3cc(OCCCN4CCN(C)CC4)c(OC)cc23)c(Cl)cc1Cl [Bosutinib] + N=C(N)NC(=N)NCCc1ccccc1 [Phenformin] (partner 250 µM)
In short: as §1

Bosutinib + Olaparib = compound: COc1cc(Nc2c(C#N)cnc3cc(OCCCN4CCN(C)CC4)c(OC)cc23)c(Cl)cc1Cl [Bosutinib] + O=C(c1cc(Cc2n[nH]c(=O)c3ccccc23)ccc1F)N1CCN(C(=O)C2CC2)CC1 [Olaparib] (partner 8 µM)
In short: as §1

Bosutinib + Navitoclax = compound: COc1cc(Nc2c(C#N)cnc3cc(OCCCN4CCN(C)CC4)c(OC)cc23)c(Cl)cc1Cl [Bosutinib] + CC1(C)CCC(c2ccc(Cl)cc2)=C(CN2CCN(c3ccc(C(=O)NS(=O)(=O)c4ccc(N[C@H](CCN5CCOCC5)CSc5ccccc5)c(S(=O)(=O)C(F)(F)F)c4)cc3)CC2)C1 [Navitoclax] (partner 0.5 µM)
In short: as §1

Bosutinib + Decitabine = compound: COc1cc(Nc2c(C#N)cnc3cc(OCCCN4CCN(C)CC4)c(OC)cc23)c(Cl)cc1Cl [Bosutinib] + Nc1ncn([C@H]2C[C@H](O)[C@@H](CO)O2)c(=O)n1 [Decitabine] (partner 2 µM)
In short: as §1

Bosutinib + Alpelisib = compound: COc1cc(Nc2c(C#N)cnc3cc(OCCCN4CCN(C)CC4)c(OC)cc23)c(Cl)cc1Cl [Bosutinib] + Cc1nc(NC(=O)N2CCC[C@H]2C(N)=O)sc1-c1ccnc(C(C)(C)C(F)(F)F)c1 [Alpelisib] (partner 2 µM)
In short: as §1

Bosutinib + Crizotinib = compound: COc1cc(Nc2c(C#N)cnc3cc(OCCCN4CCN(C)CC4)c(OC)cc23)c(Cl)cc1Cl [Bosutinib] + C[C@@H](Oc1cc(-c2cnn(C3CCNCC3)c2)cnc1N)c1c(Cl)ccc(F)c1Cl [Crizotinib] (partner 1 µM)
In short: as §1

Bosutinib = compound: COc1cc(Nc2c(C#N)cnc3cc(OCCCN4CCN(C)CC4)c(OC)cc23)c(Cl)cc1Cl [Bosutinib]
In short: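 After an overnight hold at 37 °C, lung cancer cell lines in 1536-well plates were pinned with five library-drug doses (not always all listed), each √10 from the next, on vehicle-anchored plates. The cells stayed 5 days without fresh medium, then a one-step fix, permeabilisation and Hoechst stain preceded 4× imaging and MetaXpress nuclear counts. A plate passed only with control CV under 25% and at least one doubling. Viability is the median, over plates, of treated-well nuclei relative to vehicle-well nuclei.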

Cell Line A549 has a relative viability (Bosutinib + Pictilisib; first compound 0.01 µM) of 0.442, a relative viability (Bosutinib + Pictilisib; first compound 0.03162 µM) of 0.447 and a relative viability (Bosutinib + Pictilisib; first compound 0.1 µM) of 0.494. For the same cell line, the relative viability (Bosutinib + Pictilisib; first compound 1 µM) was 0.513, the relative viability (Bosutinib + Lapatinib; first compound 0.01 µM) was 0.949 and the relative viability (Bosutinib + Lapatinib; first compound 0.03162 µM) was 1.05. For the same cell line, the relative viability (Bosutinib + Lapatinib; first compound 0.1 µM) was 1.06, the relative viability (Bosutinib + Lapatinib; first compound 1 µM) was 1.03 and the relative viability (Bosutinib + Foretinib; first compound 0.01 µM) was 0.946. The relative viability (Bosutinib + Foretinib; first compound 0.03162 µM) was 1, the relative viability (Bosutinib + Foretinib; first compound 0.1 µM) was 0.92 and the relative viability (Bosutinib + Foretinib; first compound 1 µM) was 0.908. It also gave a relative viability (Bosutinib + Linsitinib; first compound 0.01 µM) of 0.676, a relative viability (Bosutinib + Linsitinib; first compound 0.03162 µM) of 0.624 and a relative viability (Bosutinib + Linsitinib; first compound 0.1 µM) of 0.55. It also gave a relative viability (Bosutinib + Linsitinib; first compound 1 µM) of 0.499, a relative viability (Bosutinib + Phenformin; first compound 0.01 µM) of 0.197 and a relative viability (Bosutinib + Phenformin; first compound 0.03162 µM) of 0.169. The relative viability (Bosutinib + Phenformin; first compound 0.1 µM) was 0.149, the relative viability (Bosutinib + Phenformin; first compound 1 µM) was 0.124 and the relative viability (Bosutinib + Olaparib; first compound 0.01 µM) was 0.52. It also gave a relative viability (Bosutinib + Olaparib; first compound 0.03162 µM) of 0.447, a relative viability (Bosutinib + Olaparib; first compound 0.1 µM) of 0.357 and a relative viability (Bosutinib + Olaparib; first compound 1 µM) of 0.286. For the same cell line, the relative viability (Bosutinib + Navitoclax; first compound 0.01 µM) was 1.2, the relative viability (Bosutinib + Navitoclax; first compound 0.03162 µM) was 1.26 and the relative viability (Bosutinib + Navitoclax; first compound 0.1 µM) was 1.27. It also gave a relative viability (Bosutinib + Navitoclax; first compound 1 µM) of 1.07, a relative viability (Bosutinib + Decitabine; first compound 0.01 µM) of 0.279 and a relative viability (Bosutinib + Decitabine; first compound 0.03162 µM) of 0.226. For the same cell line, the relative viability (Bosutinib + Decitabine; first compound 0.1 µM) was 0.237, the relative viability (Bosutinib + Decitabine; first compound 1 µM) was 0.261 and the relative viability (Bosutinib + Alpelisib; first compound 0.01 µM) was 0.731. It also gave a relative viability (Bosutinib + Alpelisib; first compound 0.03162 µM) of 0.78, a relative viability (Bosutinib + Alpelisib; first compound 0.1 µM) of 0.734 and a relative viability (Bosutinib + Alpelisib; first compound 1 µM) of 0.621. The relative viability (Bosutinib + Crizotinib; first compound 0.01 µM) was 0.761, the relative viability (Bosutinib + Crizotinib; first compound 0.03162 µM) was 0.66 and the relative viability (Bosutinib + Crizotinib; first compound 0.1 µM) was 0.724. It also gave a relative viability (Bosutinib + Crizotinib; first compound 1 µM) of 1.01, a relative viability (Bosutinib; 0.01 µM) of 1 and a relative viability (Bosutinib; 0.03162 µM) of 1.04. The relative viability (Bosutinib; 0.1 µM) was 1.01 and the relative viability (Bosutinib; 1 µM) was 0.939.

Reference: the supplement of paper PMC10307832
